Data taken from publication PMC9585577, “Oxyresveratrol and Gnetol Glucuronide Metabolites: Chemical Production, Structural Identification, Metabolism by Human and Rat Liver Fractions, and In Vitro Anti-inflammatory Properties” (Journal of Agricultural and Food Chemistry, 2022).

Legend:
[1] = system: RAW 264.7 cells; assay: MTT cell viability; format: cell-based, murine; details: 24 h, 5–200 μM tested
Protocol: (§1) RAW 264.7 cells were cultured in DMEM containing 10% FBS and maintained in a humidified incubator set at 37 °C with 5% CO2. For all following assays, cells were subcultured at a density of 40 000 cells per well in 96 well culture plates with 200 μL of the above-described culture medium. After 24 h, cells were incubated with ORV, GN, and their glucuronide metabolites (5–200 μM) in RPMI medium supplemented with glutamine (4 mM) in the presence or absence of LPS (0.1 μg/mL) (200 μL final volume per well). For MTT, NO, ROS, IL-1β, and TNF-α (n = 4), each experiment was performed in triplicate separately.
The MTT colorimetric assay was performed to assess the cell viability of cells after being treated with ORV, GN, and their glucuronide metabolites. After 24 h of treatment, RAW 264.7 cells were incubated with 0.5 mg/mL MTT during 3 h at 37 °C. The formazan crystals formed were dissolved with 100 μL of dimethyl sulfoxide (DMSO), and the plate was then incubated in the darkness for 30 min. Finally, the absorbance was measured at 595 nm using a microplate reader (FLUOstar Optima, BMG Labtech).

[2] = system: NO production in LPS-stimulated RAW 264.7 cells; assay: NO measurement (Griess) in LPS-stimulated macrophages; format: cell-based, murine; details: between 25 and 50 μM (summary statement)
Protocol: as §1
After 24 h of treatment of RAW 264.7 cells with ORV, GN, and their glucuronide metabolites, 70 μL of supernatant was mixed with 70 μL of Griess solution. After 15 min in darkness, the absorbance was measured at 550 nm using a microplate reader (FLUOstar Optima, BMG Labtech). A calibration curve of NO2 (0–100 μM) was used for quantification. Data were expressed as NO production (μM) compared to cells treated only with LPS (positive control).

[3] = system: ROS production in LPS-stimulated RAW 264.7 cells; assay: Intracellular ROS measurement (DCFH2-DA) in LPS-stimulated macrophages; format: cell-based, murine
Protocol: as §1
Generation of intracellular ROS in cells was analyzed using the fluorometric probe DCFH2-DA. After 24 h of treatment with GN, ORV, and their glucuronide metabolites, cells were washed with phosphate-buffered saline (PBS) and then 150 μL of DCFH2-DA (10 μM) was added. After 30 min at 37 °C, the fluorescence intensity was quantified using a microplate reader (FLUOstar Optima, BMG Labtech) with a wavelength of excitation and emission of 485 and 520 nm, respectively. All experiments were performed in darkness. Results were expressed as ROS production (fluorescence intensity expressed as arbitrary units) compared to cells treated only with LPS (positive control).

[4] = system: IL-1β production in LPS-stimulated RAW 264.7 cells; assay: IL-1β production (ELISA) in LPS-stimulated macrophages; format: cell-based, murine; details: t-GN 10 and 50 μM, its glucuronides 50 and 200 μM, 24 h
Protocol: as §1
(§2) At 24 h after seeding, RAW 264.7 cells were exposed to LPS (0.1 μg/mL) in the absence or presence of ORV, GN (10 and 50 μM), and their metabolites (50 and 200 μM). After 24 h of exposure, IL-1β and TNF-α concentrations were measured in culture media supernatants by ELISA sandwich assay following the instructions of the manufacturer.

[5] = system: TNF-α production in LPS-stimulated RAW 264.7 cells; assay: TNF-α production (ELISA) in LPS-stimulated macrophages; format: cell-based, murine; details: t-GN 10 and 50 μM, its glucuronides 50 and 200 μM, 24 h
Protocol: as §1, §2

[6] = set-up: method as in PMID 25939395; details: rats, intravenous and oral administration ref 2; cited from earlier work
[7] = system: BV-2 microglial cells; set-up: method as in PMID 23807809; details: 5 and 10 μM, BV-2 microglial cells ref 36; cited from earlier work

In the case of Oc1cc(O)cc(/C=C/c2c(O)cccc2O)c1 [t-GN, trans-2′,3,5,6′-tetrahydroxystilbene], the “concentration from which toxic (MTT)” value [1] is reported as at least 100 µM, the “decrease of NO production” value [2] is reported as “more than 50%” and the “counteracting ROS production” value ([3]; GN, concentration not stated (5–50 μM tested), 24 h, LPS) is reported as “more than 55%”. The “decrease of ROS production” value ([3]; between 25 and 50 μM (summary statement)) was “more than 50%”, the “reduction of IL-1β” value [4] was “ineffective” and the “reduction of TNF-α” value [5] was “ineffective”. For the same molecule, the calculated bioavailability [6] was 6.6% and the cytotoxic effect [7] was “no cytotoxic effect”.
